This is an account of results in patent US11590093B2, “Kit, composition, and combination therapy for fragile X syndrome” (priority 2018, dated 2023).

Entries after “also recorded” stand apart in the source; their conditions may differ.

Conditions in all cases: osmotic minipumps s.c. 15 days, sulindac 5 mg/kg, metoprolol 10 mg/kg, ibudilast 3 mg/kg, sertraline 1 mg/kg, quercetin 1 mg/kg (100 mg/kg in combination), cannabidiol 5 mg/kg
For assay [1], the system named is Fmr1 KO2 mice. The assay can be described thus: Open field (hyperactivity, locomotor activity). Type of assay: in vivo. From the text: (§1) The Fmr1 KO2 it is both, protein and mRNA null. In this study we used Fmr1 KO2 and wild-type (WT) littermates generated on a C57BL/6J background and repeatedly backcrossed onto a C57BL/6J background for more than eight generations.
(§2) There were four treatment groups per compound/compound combination in the study with 10 male mice used per treatment group (all at 8 weeks of age): Group 1: Fmr1 KO2 mice treated with vehicle (Fmr1 KO2-V), Group 2: wild-type littermate mice treated with vehicle (WT-V), Group 3: Fmr1 KO2 mice treated with compounds (Fmr1 KO—[name of drug(s)]) and Group 4: wild-type littermate mice treated with compounds (WT—[name of drug(s)]).
The open-field apparatus was used to test hyperactivity. The apparatus was a gray PVC-enclosed arena […] divided into a 10×10 cm grid. Mice were brought to the experimental room 5-20 min before testing. A mouse was placed into a corner square facing the corner and observed for 3 min. The number of squares entered by the whole body (locomotor activity) were counted. The movement of the mouse around the field was recorded with a video tracking device for 3 min (version NT4.0, Viewpoint).

The test system of assay [2] is Fmr1 KO2 mice.
From the text: as §1, §2
The dependent measure used in contextual fear conditioning was a freezing response following a pairing of an unconditioned stimulus (foot shock), with a conditioned stimulus, a particular context. Freezing is a species-specific response to fear, which has been defined as “absence of movement except for respiration”. This may last for seconds to minutes depending on the strength of the aversive stimulus, the number of presentations, and the degree of learning achieved by the subject. Testing involved placing the animal in a novel environment (dark chamber), providing an aversive stimulus (a 1-sec electric shock, 0.2 mA, to the paws), and then removing it.

In assay [3] the test system is Fmr1 KO2 mice. The assay can be described thus: Social interaction, three-chambered sociability task. The format is in vivo.
Method: In the three-chambered sociability task, a subject mouse was evaluated for its exploration of a novel social stimulus (novel mouse). The three-chambered social approach task monitors direct social approach behaviors when a subject mouse is presented with the choice of spending time with either a novel mouse or an empty cup. Sociability is defined as the subject mouse spending more time in the chamber containing the mouse than in the empty chamber. Preference for social novelty is defined as spending more time in the chamber with the novel mouse. The apparatus is a rectangular three-chamber box, where each chamber measures 20 cm (length)×40.5 cm (width)×22 cm (height). Dividing walls are made from clear perplex, with small openings (10 cm width×5 cm height) that allow access into each chamber. The three chamber task was lit from below (10 lux). The mice were allowed to freely explore the three-chamber apparatus over three 10 min trials. During the trial one wire cup was placed upside down in one of the side chambers and a novel mouse was placed under another wire cup in the other side chamber (novel mouse stimulus), leaving the middle chamber empty. The location of the novel mouse across trials was counterbalanced to minimize any potential confound due to a preference for chamber location. The time spent exploring the novel mice was scored as exploration ratio.
Assay [4] concerns Fmr1 KO2 mice.
From the text: as §1, §2
The test was performed in individual cages. Normal bedding covered the floor to a depth of 0.5 cm. Each cage was supplied with a “Nestlet,” a 5 cm square of pressed cotton batting (Ancare). Mice were placed individually into the nesting cages 1 hr. before the dark phase, and the results were assessed the next morning. Nest building was scored on a 5 point scale.
Score 1: The Nestlet was largely untouched (>90% intact).
Score 2: The Nestlet was partially torn up (50-90% remaining intact).
Score 3: The Nestlet was mostly shredded but often there was no identifiable nest site: <50% of the Nestlet […]
The source holds these as a separate data set.

With `CC1=C(CC(=O)O)c2cc(F)ccc2/C1=C\c1ccc([S+](C)[O-])cc1` (stereo not drawn) [sulindac, (Z)-5-fluoro-2-methyl-1-[[p-(methylsulfinyl)phenyl]methylene]-1H-indene-3-acetic acid], the “Open field: hyperactivity” value with Fmr1 KO2 mice [1] was “normalizes hyperactivity; also recorded: fully rescuing open field and nesting behavior”. Besides, in the assay with Fmr1 KO2 mice [2], the “Contextual fear conditioning (learning and memory)” value (“Contextual fear conditioning” for short) is “ameliorates the Fmr1 KO deficit in learning and memory; also recorded: partially rescuing contextual fear conditioning and sociability; also recorded: neither sulindac nor sertraline alone rescues sociability or fear conditioning; also recorded: neither sulindac nor quercetin alone fully rescues fear conditioning”. The “Sociability (exploration of novel mouse)” value in the assay with Fmr1 KO2 mice [3] is “partially rescuing contextual fear conditioning and sociability; also recorded: neither sulindac nor ibudilast alone rescues sociability; also recorded: neither sulindac nor sertraline alone rescues sociability or fear conditioning”; in the assay with Fmr1 KO2 mice [3] (listed as Sulindac), “partially improved such impairment”. Besides, the Nesting behavior result with Fmr1 KO2 mice [4] was “normalization in nesting behavior; also recorded: fully rescuing open field and nesting behavior”.
Turning to `O=c1c(O)c(-c2ccc(O)c(O)c2)oc2cc(O)cc(O)c12` [quercetin], the “Contextual fear conditioning” value with Fmr1 KO2 mice [2] is “neither sulindac nor quercetin alone fully rescues fear conditioning”.
For `CN[C@H]1CC[C@@H](c2ccc(Cl)c(Cl)c2)c2ccccc21` [sertraline], the “Contextual fear conditioning” value with Fmr1 KO2 mice [2] is given as “neither sulindac nor sertraline alone rescues sociability or fear conditioning”. Also, the “Sociability (exploration of novel mouse)” value with Fmr1 KO2 mice [3] is recorded as “neither sulindac nor sertraline alone rescues sociability or fear conditioning”.
Turning to `COCCc1ccc(OCC(O)CNC(C)C)cc1.O=C(O)C(O)C(O)C(=O)O` (racemic) [metoprolol, (±) 1-(Isopropylamino)-3-[p-(β-methoxyethyl)phenoxy]-2-propanol (+)-tartrate salt], the “Open field: hyperactivity” value with Fmr1 KO2 mice [1] is “normalized Fmr1 KO2 mice hyperactivity; also recorded: normalize hyperactivity”. In the assay on Fmr1 KO2 mice [2], the “Contextual fear conditioning” value is listed as “fails to improve the learning deficits”. In addition, in the assay on Fmr1 KO2 mice [3], the “Sociability (exploration of novel mouse)” value was “No significant difference was found in sociability; also recorded: partially rescue nesting behavior and sociability”. In the assay on Fmr1 KO2 mice [4], the Nesting behavior result is “partially rescued; also recorded: partially rescue nesting behavior and sociability”.
